Test results published in patent publication US4379780A, “17 α-Dihydroequilin hapten and assay method” (American Home Products Corporation, priority 1980, dated 1983).

Columns and labels:
[1] = tested on: anti-17α-dihydroequilin serum; experiment: Cross-reactivity of steroids with the anti-17α-dihydroequilin serum (radioimmunoassay); type: binding; conditions: selected rabbit anti-17α-dihydroequilin serum; [2,4-3H]-17α-dihydroequilin tracer
Method: For the assay procedure, a standard was prepared from a stock solution of unlabeled steroid in absolute ethanol (100 ng/ml). A working standard solution containing 1 ng/ml of unlabeled steroid was prepared in sodium phosphate buffer (0.1 M, pH 7, 0.9% NaCl). The labeled [2,4-^3 H]-17α-dihydroequilin solution was prepared in the assay buffer at a concentration of 100 pg/ml. The antiserum was prepared in BSA-assay buffer (1 g BSA/1000 ml sodium phosphate buffer) at a concentraton of one-fifth of the final working dilutions.
The standard curve was established by preparing duplicate 3 ml centrifuge tubes containing 0, 50, 100, 250, 500, 1000, and 2000 pg of the steroid in a total volume of 0.5 ml assay buffer. The sample tubes were prepared in duplicate with hydrolyzed plasma extract (0.1 ml) and assay buffer (0.4 ml) in a total volume of 0.5 ml. To all standard and sample tubes antibody (0.25 ml) and labeled steroid (0.5 ml) were added. These were mixed and allowed to incubate at 4° C. for 18 hr. After addition of 0.2 ml gamma globulin dextran-coated charcoal (4 g charcoal, 0.4 g dextran, 0.8 g human gamma globulin, 200 ml deionized water), each tube was again mixed and placed in a cold room (4° C.) for 20 min. After centrifugation at 2,500 rev./min for 6 min, 0.5 ml of each supernatant was aliquoted into a counting vial. Then 15 ml of a scintillation medium [(4 g of 2,5-diphenyloxazole (PPO), 50 mg of 1,4-di-2-(5-phenyloxazoyl)benzene (dimethyl-POPOP), 100 ml of the aqueous solubilizer Biosolv BBS-3 (Biosolv is a trademark of Beachman Instruments, Irvine, Calif., U.S.A.) and 1000 ml toluene] was added to each vial. The samples were counted to a relative standard error of less than 2% in a Packard model 3320 liquid scintillation counter, Packard Instrument Co., Downers Grove, Ill., U.S.A., see C. Matthijssen and J. W. Goldzieher, Analyt. Biochem., 10, 401 (1965).
The titer was determined from the ability of antibody to bind a constant amount (50 pg) of the labeled steroid.

[2] = Oxidation of 17α-dihydroequilin to 17α-dihydroequilenin during formic acid hydrolysis (HPLC); type: physicochemical; conditions: 120 min
Method: Plasma (0.2 ml) and distilled water (0.7 ml) were added to a 16×125 mm tube and mixed. [6,7-^3 H]-Estrone-3-sulfate (0.1 ml, 2000 cpm, obtained from New England Nuclear Corp.), and [2,4-^3 H]-17α-dihydroequilin (0.1 ml, 2000 cpm) was then added to correct for recovery through the assay procedure, and the sample again mixed well and allowed to stand at room temperature for 30 min. Diethyl ether (2 ml) was added for extraction of the free compound. The extraction was repeated three times and the combined extracts washed with distilled water (1 ml) and the solvent removed by evaporation. The aqueous phase containing the conjugates was re-extracted with 2 ml of ethyl acetate-ethanol (4:1, v/v). The extraction was repeated two more times and the combined extracts were dried in a centrifuge tube (12 ml) under a stream of nitrogen. Absolute ethanol was added to those tubes which contained residual water and once again dried under nitrogen. The conjugate fraction was hydrolyzed with formic acid. […] The tube was tightly closed, vortexed, and sonified for 10 min before being placed in a 37° C. water bath for 2 hr. The hydrolyzed sample was taken to dryness, sodium phosphate buffer (1 ml) was added, and the solution was vortexed and allowed to stand at 20° C. for 10 min. The hydrolyzed free compound was extracted with diethyl ether (2 ml) three times and taken to dryness. […]

SMILES | 17α-Dihydroequilin Antibody (Percent Cross-Reactivity) [1] | 17α-dihydroequilin oxidized to 17α-dihydroequilenin during hydrolysis with formic acid ([2]; 0.1% (w/v) ascorbic acid added before hydrolysis) | 17α-dihydroequilin oxidized to 17α-dihydroequilenin during hydrolysis with formic acid ([2]; without ascorbic acid)
C[C@]12CCC(=O)C=C1CC[C@@H]1[C@@H]2CC[C@]2(C)C(=O)CC[C@@H]12 [4-Androstene-3,17-dione] | < 0.10% |  | 
C[C@]12CC[C@@H]3c4ccc(O)cc4C=C[C@H]3[C@@H]1CCC2=O [6-Dehydroestrone] | < 0.10% |  | 
C[C@]12CCC3=C(CCc4cc(O)ccc43)[C@@H]1CCC2=O [8-Dehydroestrone] | < 0.10% |  | 
C[C@]12CCc3c(ccc4cc(O)ccc34)[C@@H]1CC[C@H]2O [17α-Dihydroequilenin] | < 0.10% |  | 
C[C@]12CC[C@H]3C(=CCc4cc(OS(=O)(=O)O)ccc43)[C@@H]1CC[C@H]2O [17α-Dihydroequilin 3-sulfate] | 9.04% |  | 
C[C@]12CC[C@H]3C(=CCc4cc(O)ccc43)[C@@H]1CC[C@H]2O [17α-Dihydroequilin, 1,3,5(10),7-estratetraene-3,17α-diol] | 100.0% | 2-3% | 13-16%
C[C@]12CC[C@@H]3c4ccc(OS(=O)(=O)O)cc4CC[C@H]3[C@@H]1CC[C@H]2O [17α-Estradiol 3-sulfate] | < 0.10% |  | 
C[C@]12CCc3c(ccc4cc(O)ccc34)[C@@H]1CC[C@@H]2O [17β-Dihydroequilenin] | < 0.10% |  | 
C[C@]12CC[C@H]3C(=CCc4cc(O)ccc43)[C@@H]1CC[C@@H]2O [17β-Dihydroequilin] | < 0.10% |  | 
C[C@]12CC[C@@H](O)C[C@@H]1CC[C@@H]1[C@@H]2CC[C@]2(C)C(=O)CC[C@@H]12 [Androsterone] | < 0.10% |  | 
C[C@]12CCC(=O)C=C1CC[C@@H]1[C@@H]2[C@@H](O)C[C@@]2(C)[C@H]1CC[C@]2(O)C(=O)CO [Cortisol] | < 0.10% |  | 
C[C@]12CC[C@H](O)CC1=CC[C@@H]1[C@@H]2CC[C@]2(C)C(=O)CC[C@@H]12 [Dehydroepiandrosterone] | < 0.10% |  | 
C[C@]12CCc3c(ccc4cc(O)ccc34)[C@@H]1CCC2=O [Equilenin] | 0.40% |  | 
C[C@]12CC[C@@H]3c4ccc(O)cc4C[C@@H](O)[C@]3(O)[C@@H]1CCC2=O [Equilin-7α,8α-glycol] | < 0.10% |  | 
C[C@]12CC[C@H]3C(=CCc4cc(O)ccc43)[C@@H]1CCC2=O [Equilin] | 0.7% |  | 
C[C@]12CC[C@@H]3c4ccc(O)cc4CC[C@H]3[C@@H]1CC[C@H]2O [Estradiol-17α] | < 0.10% |  | 
C[C@]12CC[C@@H]3c4ccc(O)cc4CC[C@H]3[C@@H]1CC[C@@H]2O [Estradiol-17β] | < 0.10% |  | 
C[C@]12CC[C@@H]3c4ccc(O)cc4CC[C@H]3[C@@H]1CCC2=O [Estrone] | < 0.10% |  | 
CC(=O)[C@H]1CC[C@H]2[C@@H]3CCC4=CC(=O)CC[C@]4(C)[C@H]3CC[C@]12C [Progesterone] | < 0.10% |  | 
C[C@]12CC[C@H]3[C@@H](CCC4=CC(=O)CC[C@@]43C)[C@@H]1CC[C@@H]2O [Testosterone] | < 0.10% |  | 
